Among the data in ChEMBL document CHEMBL1145642, “Farnesyl pyrophosphate synthase enantiospecificity with a chiral risedronate analog, [6,7-dihydro-5H-cyclopenta[c]pyridin-7-yl(hydroxy)methylene]bis(phosphonic acid) (NE-10501): Synthetic, structural, and modeling studies” (Bioorg Med Chem Lett, 2008) are IC50 values, retold here.

The assay concerns the target T1, Farnesyl pyrophosphate synthase (Homo sapiens, UniProt P14324).
T1 sequence (P14324 whole entry): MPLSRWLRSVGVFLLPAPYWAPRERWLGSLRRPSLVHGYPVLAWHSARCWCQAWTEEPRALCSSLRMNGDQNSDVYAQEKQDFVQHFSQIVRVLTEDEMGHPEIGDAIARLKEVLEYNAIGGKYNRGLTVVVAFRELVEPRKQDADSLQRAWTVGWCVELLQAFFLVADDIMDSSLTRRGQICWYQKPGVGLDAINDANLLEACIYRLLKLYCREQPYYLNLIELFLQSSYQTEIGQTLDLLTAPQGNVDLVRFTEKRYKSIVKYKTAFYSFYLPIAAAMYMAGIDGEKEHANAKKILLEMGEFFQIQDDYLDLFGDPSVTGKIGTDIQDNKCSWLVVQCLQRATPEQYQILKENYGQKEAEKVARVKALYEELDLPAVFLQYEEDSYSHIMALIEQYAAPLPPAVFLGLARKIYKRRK

`O=P(O)(O)C(O)(C1CCc2ccncc21)P(=O)(O)O` (stereo unspecified) yielded an IC50 of 630 nM.

Usually IC50 stands for the concentration needed to halve the response being measured.
